For the assay, the target named is Cyclin-dependent kinase 1/G2/mitotic-specific cyclin-B (Marthasterias glacialis, UniProt P15206+Q9DGD3). Briefly: Kinase Inhibition Assay.

SMILES strings stand for the structures.

By IC50 is commonly meant the concentration at which inhibition is half-maximal. A higher IC50 goes with weaker potency.

Sequence of Cyclin-dependent kinase 1/G2/mitotic-specific cyclin-B (Q9DGD3 whole entry): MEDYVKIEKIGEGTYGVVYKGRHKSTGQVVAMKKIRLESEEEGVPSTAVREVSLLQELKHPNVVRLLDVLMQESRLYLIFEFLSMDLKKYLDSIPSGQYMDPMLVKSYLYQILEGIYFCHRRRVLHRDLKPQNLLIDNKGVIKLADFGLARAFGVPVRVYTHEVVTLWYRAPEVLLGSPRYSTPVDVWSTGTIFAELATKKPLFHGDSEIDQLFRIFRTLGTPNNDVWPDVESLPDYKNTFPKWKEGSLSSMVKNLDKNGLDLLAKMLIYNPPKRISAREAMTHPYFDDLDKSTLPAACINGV
Sequence of Cyclin-dependent kinase 1/G2/mitotic-specific cyclin-B (P15206 whole entry): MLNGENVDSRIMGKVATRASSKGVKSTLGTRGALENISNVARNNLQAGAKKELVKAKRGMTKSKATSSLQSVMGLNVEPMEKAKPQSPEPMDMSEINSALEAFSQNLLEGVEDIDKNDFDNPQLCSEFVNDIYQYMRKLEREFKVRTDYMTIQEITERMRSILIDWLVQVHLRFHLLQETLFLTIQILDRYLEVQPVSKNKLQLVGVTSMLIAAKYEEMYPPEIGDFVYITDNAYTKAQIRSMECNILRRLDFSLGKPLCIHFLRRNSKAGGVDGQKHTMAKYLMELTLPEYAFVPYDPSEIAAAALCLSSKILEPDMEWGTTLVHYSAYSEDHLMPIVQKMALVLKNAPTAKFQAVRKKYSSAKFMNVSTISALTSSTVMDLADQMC

In turn, `CS(=O)(=O)c1ccc(Nc2nc(OCC3CCCCC3)c3[nH]cnc3n2)cc1` [6-(cyclohexylmethoxy)-N-(4-methanesulfonylphenyl)-9H-purin-2-amine] yielded an IC50 of 80 nM.

The values above are taken from BindingDB's records for doi:10.1021/jm0311442 (University of Newcastle, 2004).
